How the values were obtained:
E. coli ATCC 25922 = assay: Agar diffusion growth inhibition zone, E. coli ATCC 25922; format: cell-based; conditions: Escherichia coli, 6 mm = no activity; for zone of inhibition at 100 mg/mL: ATCC25922, 100 mg
Procedure: (§1) Among the bacterial agents tested Gram positive and Gram negative bacterial groups represented by Staphylococcus aureus and Enterococcus species and pathogenic members of Enterobacteriaceae, Vibronaceae, Aeromonadaceae, Pseudomonadaceae were tested. Freshly sub-cultured bacterial strains were inoculated into peptone water and incubated for 4 hours at 37° C. and adjusted to a turbidity of 0.5 (Gram Negative Bacilli), 1 (Gram Positive Cocci) and 4 (Pus cells, GNB, & few Budding yeast cells) Mc Farland standards (10^8 CFU/ml) respectively.
(§2) The different bioactive compounds and their derivatives were dissolved and diluted with solvents (DMSO), number of subsequent dilutions was performed to obtain different concentrations of the bioactive compounds and their derivatives. (Working Concentrations).
(§3) Agar well diffusion method is widely used to evaluate the antimicrobial activity of plants or other synthetic products. The suspension (microbial inoculum) was used to inoculate into Muller Hinton Agar Petri plates by lawn culture. Well (diameter 6 mm) were punched in the agar by sterile borer and filled with 50 μl of dissolved extracts. Plates were incubated in incubator at 37° C. for 24 hours and measured the growth inhibition zone diameters in mm compared with that of control (DMSO) showing no growth.
(§4) The bioactive compounds were tested with desired concentrations in 6 mm filter paper discs (Whatman, no. 3) were impregnated with 10 μL of each of the different dilutions. The discs were allowed to remain at room temperature until complete diluent evaporation and kept under refrigeration until ready to be used. 10 μL of diluents used to products were used as control. Tests were performed by Agar disk-diffusion testing method, which is the official method used in many clinical microbiology laboratories for routine antimicrobial susceptibility testing.
(§5) Similar to the procedure used in Agar well diffusion method, the suspension (microbial inoculum) was used to inoculate into Muller Hinton Agar Petri plates by lawn culture. Then, filter paper discs (about 6 mm in diameter), containing the test compound at a desired concentration, were placed on the agar surface. The Petri dishes were incubated under suitable incubation conditions.
(§6) Bioactive compounds showing zone of inhibition beyond the size of 6 mm are considered to be having an anti-microbial activity.

Pseudomonas sp. = assay: Agar diffusion growth inhibition zone, Pseudomonas sp.; format: cell-based, Pseudomonas species; conditions: Pseudomonas
Procedure: (§7) Agar well diffusion method is widely used to evaluate the antimicrobial activity of plants or other synthetic products. The suspension (microbial inoculum) was used to inoculate into Muller Hinton Agar Petri plates by lawn culture. Well (diameter 6 mm) were punched in the agar by sterile borer and filled with 50 μl of dissolved extracts. Plates were incubated in incubator at 37° C. for 24 hours and measured the growth inhibition zone diameters in mm compared with that of control (DMSO) showing no growth. The antimicrobial agent diffuses in the agar medium and inhibits the growth of the microbial strain tested (Valgas et al., (2016) Methods for in vitro evaluating antimicrobial activity: A review. Journal of Pharmaceutical Analysis. 6(2):71-9).
(§8) Similar to the procedure used in Agar well diffusion method, the suspension (microbial inoculum) was used to inoculate into Muller Hinton Agar Petri plates by lawn culture. Then, filter paper discs (about 6 mm in diameter), containing the test compound at a desired concentration, were placed on the agar surface. The Petri dishes were incubated under suitable incubation conditions. Generally, antimicrobial agent diffuses into the agar and inhibits germination and growth of the test microorganism and then the diameters of inhibition growth zones are measured (Valgas et al., (2007) Screening methods to determine antibacterial activity of natural products. Brazilian Journal of Microbiology. 38:369-80; Balouiri M et al., (2016) Methods for in vitro evaluating antimicrobial activity: A review. Journal of Pharmaceutical Analysis. 6(2):71-9).

EAEC = assay: Agar diffusion growth inhibition zone, EAEC; format: cell-based, Enteroaggregative E. coli
Procedure: as §1, §2, §3, §4, §5, §6

Enterococcus sp. = assay: Agar diffusion growth inhibition zone, Enterococcus sp.; format: cell-based, Enterococcus species; conditions: 6 mm = no activity
Procedure: as §1, §2, §3, §4, §5, §6

ETEC = assay: Agar diffusion growth inhibition zone, ETEC; format: cell-based, Enterotoxigenic E. coli
Procedure: as §7, §8

Salmonella typhimurium = assay: Agar diffusion growth inhibition zone, Salmonella typhimurium; format: cell-based; conditions: Salmonella enterica, 6 mm = no activity
Procedure: as §1, §2, §3, §4, §5, §6

Pleisiomonas sp. = assay: Agar diffusion growth inhibition zone, Pleisiomonas sp.; format: cell-based, Pleisiomonas species; conditions: Pleisiomonas sp., 6 mm = no activity
Procedure: as §1, §2, §3, §4, §5, §6

Shigella sp. = assay: Agar diffusion growth inhibition zone, Shigella sp.; format: cell-based, Shigella species; conditions: Shigella
Procedure: as §7, §8

Vibrio cholera = assay: Agar diffusion growth inhibition zone, Vibrio cholera; format: cell-based, Vibrio cholerae; conditions: Vibrio cholerae
Procedure: as §7, §8

Klebsiella sp. = assay: Agar diffusion growth inhibition zone, Klebsiella sp.; format: cell-based, Klebsiella species; conditions: 6 mm = no activity
Procedure: as §1, §2, §3, §4, §5, §6

S. aureus = assay: Agar diffusion growth inhibition zone, S. aureus; format: cell-based, Staphylococcus aureus; conditions: Staphylococcus aureus, 6 mm = no activity
Procedure: as §1, §2, §3, §4, §5, §6

Aeromonas sp. = assay: Agar diffusion growth inhibition zone, Aeromonas sp.; format: cell-based, Aeromonas species; conditions: Aeromonas sp., 6 mm = no activity
Procedure: as §1, §2, §3, §4, §5, §6

Citrobacter sp. = assay: Agar diffusion growth inhibition zone, Citrobacter sp.; format: cell-based, Citrobacter species; conditions: 6 mm = no activity
Procedure: as §1, §2, §3, §4, §5, §6

Proteus sp. = assay: Agar diffusion growth inhibition zone, Proteus sp.; format: cell-based, Proteus species; conditions: Proteus sp.; 150 mg; 6 mm = no activity
Procedure: as §1, §2, §3, §4, §5, §6

Candida abicans = assay: Agar diffusion growth inhibition zone, Candida abicans; format: cell-based, Candida albicans; conditions: 6 mm = no activity
Procedure: as §1, §2, §3, §4, §5, §6

[1] = Escherichia coli, 6 mm = no activity

SMILES	zone of inhibition at 100 mg/mL (E. coli ATCC 25922) [mm]	zone of inhibition at 100000 µg/disc (Pseudomonas sp.) [mm]	zone of inhibition at 100 mg/mL (EAEC; [1]) [mm]	zone of inhibition at 100 mg/mL (Enterococcus sp.) [mm]	zone of inhibition at 100 mg/mL (Salmonella typhimurium) [mm]	zone of inhibition at 100 mg/mL (Pleisiomonas sp.) [mm]	zone of inhibition at 100000 µg/disc (Shigella sp.) [mm]	zone of inhibition at 100000 µg/disc (Vibrio cholera) [mm]	zone of inhibition at 100 mg/mL (Klebsiella sp.) [mm]	zone of inhibition at 100 mg/mL (S. aureus) [mm]	zone of inhibition at 100 mg/mL (Aeromonas sp.) [mm]	zone of inhibition at 100 mg/mL (Citrobacter sp.) [mm]	zone of inhibition at 100 mg/mL (Candida abicans) [mm]	other results
COc1cc(/C=C/C(=O)COC(=O)/C=C/c2ccc(OC(C)=O)c(OC)c2)ccc1OC(C)=O [compound 6, O,O′- Diacetylcalebin-A]	6	6	7	6	6	6	6	6	6	6	6	6	6	zone of inhibition at 150 mg/mL (E. coli ATCC 25922; ATCC25922, 150 mg): 6 mm; zone of inhibition at 150000 µg/disc (Pseudomonas sp.): 6 mm; inhibition of growth (EAEC): inhibited; zone of inhibition at 150 mg/mL (EAEC; Escherichia coli, 150 mg, 6 mm = no activity): 7 mm; zone of inhibition at 150 mg/mL (Enterococcus sp.; 150 mg): 6 mm; inhibition of growth (ETEC; ETEC): significantly inhibited the growth; zone of inhibition at 100000 µg/disc (ETEC; Escherichia coli): 8 mm; zone of inhibition at 150000 µg/disc (ETEC; Escherichia coli): 8 mm; zone of inhibition at 150 mg/mL (Salmonella typhimurium; 150 mg): 6 mm; zone of inhibition at 150 mg/mL (Pleisiomonas sp.; 150 mg): 6 mm; zone of inhibition at 150000 µg/disc (Shigella sp.): 6 mm; zone of inhibition at 150000 µg/disc (Vibrio cholera): 6 mm; zone of inhibition at 150 mg/mL (Klebsiella sp.; 150 mg): 6 mm; zone of inhibition at 150 mg/mL (S. aureus; 150 mg): 6 mm; zone of inhibition at 150 mg/mL (Aeromonas sp.; 150 mg): 6 mm; zone of inhibition at 150 mg/mL (Citrobacter sp.; 150 mg): 6 mm; zone of inhibition at 150 mg/mL (Proteus sp.): 6 mm; zone of inhibition at 150 mg/mL (Candida abicans; 150 mg): 6 mm
COc1cc(/C=C/C(=O)COC(=O)/C=C/c2ccc(O)cc2)ccc1O [compound 11, Demethoxycalebin- A1]	6	6	6	6	6	6	6	6	6	6	6	6	6	
